The results in this text go back to ChEMBL document CHEMBL5725856, “Substituted N-bicyclo-2-aryl-quinolin-4-carboxamides and use thereof” (2018).

This assay addresses Prostaglandin F2-alpha receptor (Homo sapiens, UniProt P43088). As to the kind of experiment: In Vitro Test of Inhibition of Human FP Receptor Activity : For the characterization of test substances in respect of FP antagonism, PGF2α-induced calcium flux in FP-expressing CHEM1 cells (Millipore, HTS093C) was used.3000 cells in 25 μl of full medium [DMEM F12, 10% FCS, 1.35 mM sodium pyruvate, 20 mM HEPES, 4 mM GlutaMAX, 2% sodium bicarbonate, 1% Pen/Strep, 1% 100× non-essential amino acids] are sown per well of a 384 multititer plate (from Greiner, TC plate, black with clear base) and incubated at 37° C./5% CO2 for 24 hours. Prior to the measurement, the medium is replaced by 30 μl of Fluo-8 AM loading buffer [calcium-free Tyrode (130 mM NaCl, 5 mM KCl, 20 mM HEPES, 1 mM MgCl2, 4.8 mM NaHCO3, pH 7.4), 2 mM CaCl2, 1× SmartBlock (from CANDOR Bioscience GmbH), 4.5 mM Probenecid, 5 μM Fluo-8 AM, 0.016% Pluronic, 0.04% Brilliant black] and incubated at 37° C./5% CO2 for 30 minutes. The test substance is prepared in DMSO in various concentrations as a dose-response curve (starting concentration 10 mM, dilution factor 3.16) and prediluted 1:50 with calcium-free Tyrode/2 mM CaCl2. 10 μl of the prediluted substance solution are added to the Fluo-8-laden cells and incubated at 37° C./5% CO2 for 10 minutes. […]. Format: cell-based. On the technique in general: Calcium assays in cells follow changes in intracellular calcium, usually with a dye or a luminescent sensor.

Chain of Prostaglandin F2-alpha receptor (P43088 whole entry): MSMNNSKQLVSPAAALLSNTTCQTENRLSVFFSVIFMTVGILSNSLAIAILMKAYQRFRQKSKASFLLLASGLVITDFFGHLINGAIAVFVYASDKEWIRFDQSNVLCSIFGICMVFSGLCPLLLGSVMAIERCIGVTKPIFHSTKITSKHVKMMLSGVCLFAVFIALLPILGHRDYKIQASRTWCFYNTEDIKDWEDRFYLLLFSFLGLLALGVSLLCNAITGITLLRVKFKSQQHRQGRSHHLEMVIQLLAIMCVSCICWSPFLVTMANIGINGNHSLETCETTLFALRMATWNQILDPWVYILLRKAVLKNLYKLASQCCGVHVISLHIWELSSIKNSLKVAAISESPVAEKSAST

As to `Cc1c(-c2ccccc2)nc2ccc(C(C)(C)C)cc2c1C(=O)NC12CCC(C(=O)O)(CC1)CC2`, the 50% inhibitory concentration (IC50) – broadly, the midpoint of a concentration-inhibition curve – was 456 nM.
